We go through four compounds from article PMC12475274, “Harnessing indole scaffolds to identify small-molecule IRE1α inhibitors modulating XBP1 mRNA splicing” (Nature Communications, 2025).

Series [1] deals with HT-29 cells. Kind of series: Cell viability assay (CCK-8), HT-29. The series is classed as cell-based, human. Details: key to HT-29 viability: % viability vs DMSO-treated cells, blank-corrected A450. Particulars: in % (unit assumed). As to the method:
(§1) Cells were collected and seeded into 96-well plates at a density of 2000–4000 cells per well and cultured overnight to allow cells to adhere. After adherence, cells were treated with the indicated compounds for 72 h. Then 20 μL CCK-8 solution (Vazyme, A311) was added into each well and incubated at 37 °C for 2–4 h. Absorbance was detected at a wavelength of 450 nm using a TECAN plate reader. Cell viability was calculated with the equation: Cell viability (%) = 100(Absorbance of treated cell - Absorbance of Blank control)/ (Absorbance of DMSO-treated cells - Absorbance of Blank control); Blank control: medium and CCK-8 solution, no cells.

The test system of series [2] is HCT 116 cells. Kind of series: Cell viability assay (CCK-8), HCT 116. More on the design: key to HCT 116 viability: % viability vs DMSO-treated cells, blank-corrected A450. The series is classed as cell-based, human. Particulars: in % (unit assumed). On the procedure: as §1
Series [3] deals with A549 cells. Kind of series: Cell viability assay (CCK-8), A549. It counts as cell-based, human. More on the design: key to A549 viability: % viability vs DMSO-treated cells, blank-corrected A450. Particulars: in % (unit assumed). As to the method:
as §1

Series [4] deals with MDA-MB-468 cells. Put plainly: Cell viability assay (CCK-8), MDA-MB-468. The series is classed as cell-based, human. More on the design: key to MDMB-468 viability: % viability vs DMSO-treated cells, blank-corrected A450. Particulars: in % (unit assumed). As to the method: as §1
Series [5] addresses IRE1α (ERN1) (Homo sapiens, UniProt O75460). Put plainly: LanthaScreen Eu kinase binding assay, IRE1α. On the procedure:
LanthaScreen^TM Eu kinase binding assays were conducted by SelectScreen Kinase Profiling Services (Thermo Fisher) using Alexa Fluor conjugated kinase tracer, tagged kinase protein, and Eu-labeled anti-tag antibody. The binding of the tracer to the kinase will form the tracer-kinase complex, resulting in a high FRET signal with the Eu-labeled anti-tag antibody. Displacement of the tracer by a kinase inhibitor led to a decreased FRET signal. […] Buffer A containing 50 mM HEPES pH 7.5, 0.01% BRIJ-35, 10 mM MgCl2, and 1 mM EGTA was used.
Kinase profiling was conducted by the SelectScreen Kinase Profiling Services (Thermo Fisher), using Z′-LYTE, Adapta, or LanthaScreen Eu Kinase Binding Assay for different kinases. The kinome phylogenetic tree was generated using the KinMap web portal.
(In general: In TR-FRET formats the signal depends on donor and acceptor labels being close together.)

The target of series [6] is T1, phosphorylated IRE1α (p-IRE1α) (Homo sapiens, UniProt O75460).
T1 construct: Human IRE1α kinase and RNase domain (residues 547–977) was subcloned into pLIB plasmid; His tag (with TEV cleavage site) (N, cleaved yes); made in house; host or cells: Sf9 insect cells, baculovirus (Bac-to-Bac)
Put plainly: FRET-based IRE1α RNase activity assay, phosphorylated IRE1α. The series is classed as biochemical. An outline of the steps: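 Cleavage of a dual-labeled XBP1 RNA (200 nM) was followed kinetically over 1 h at room temperature at 485/535 nm, with initial slopes giving percent inhibition and IC50. Enzyme was 4 nM phosphorylated human IRE1α 547–977 from insect cells, incubated with compound for 30 min before substrate; buffer 20 mM HEPES pH 7.5, KOAc, MgOAc2, DTT, Triton X-100.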

Series [7] addresses T2, dephosphorylated IRE1α (547–977) (Homo sapiens, UniProt O75460).
T2 construct: Human IRE1α kinase and RNase domain (residues 547–977) was subcloned into pLIB plasmid; His tag (with TEV cleavage site) (N, cleaved yes); made in house; host or cells: Sf9 insect cells, baculovirus (Bac-to-Bac)
Kind of series: FRET-based IRE1α RNase activity assay, dephosphorylated IRE1α. The series is classed as biochemical. An outline of the steps:
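Inhibition came from the linear-phase cleavage rate of 100 nM XBP1-sequence FAM/BHQ1 RNA, monitored at 485/535 nm over one hour and fitted to IC50. Enzyme: 40 nM unphosphorylated IRE1α kinase-RNase domain (547–977), exposed to compound for 30 min at room temperature before substrate, in HEPES pH 7.5 buffer.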

[8] abbreviates: Conc. 50000 nM, duplicates, read-out: IRE1a Kinase Displacement(%).

The structures appear in SMILES notation. “And” between values parts separate entries of the source, which are not always exact repeats. Identical values can stand only once. Like-named read-outs stand apart in the source and are kept apart here.

T2 sequence (O75460 547-977): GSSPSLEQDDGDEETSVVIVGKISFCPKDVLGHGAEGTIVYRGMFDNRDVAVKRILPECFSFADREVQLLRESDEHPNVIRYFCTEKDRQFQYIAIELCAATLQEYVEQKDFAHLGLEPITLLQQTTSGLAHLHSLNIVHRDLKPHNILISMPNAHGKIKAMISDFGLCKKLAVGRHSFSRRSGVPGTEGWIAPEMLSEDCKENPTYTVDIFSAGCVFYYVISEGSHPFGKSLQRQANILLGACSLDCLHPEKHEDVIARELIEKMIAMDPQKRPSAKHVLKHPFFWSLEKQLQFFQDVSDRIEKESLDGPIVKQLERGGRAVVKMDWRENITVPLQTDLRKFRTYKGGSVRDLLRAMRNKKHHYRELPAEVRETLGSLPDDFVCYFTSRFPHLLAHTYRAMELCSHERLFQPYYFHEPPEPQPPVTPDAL
T1 sequence (O75460 547-977): as above
Chain of IRE1α (ERN1) (O75460 19-977): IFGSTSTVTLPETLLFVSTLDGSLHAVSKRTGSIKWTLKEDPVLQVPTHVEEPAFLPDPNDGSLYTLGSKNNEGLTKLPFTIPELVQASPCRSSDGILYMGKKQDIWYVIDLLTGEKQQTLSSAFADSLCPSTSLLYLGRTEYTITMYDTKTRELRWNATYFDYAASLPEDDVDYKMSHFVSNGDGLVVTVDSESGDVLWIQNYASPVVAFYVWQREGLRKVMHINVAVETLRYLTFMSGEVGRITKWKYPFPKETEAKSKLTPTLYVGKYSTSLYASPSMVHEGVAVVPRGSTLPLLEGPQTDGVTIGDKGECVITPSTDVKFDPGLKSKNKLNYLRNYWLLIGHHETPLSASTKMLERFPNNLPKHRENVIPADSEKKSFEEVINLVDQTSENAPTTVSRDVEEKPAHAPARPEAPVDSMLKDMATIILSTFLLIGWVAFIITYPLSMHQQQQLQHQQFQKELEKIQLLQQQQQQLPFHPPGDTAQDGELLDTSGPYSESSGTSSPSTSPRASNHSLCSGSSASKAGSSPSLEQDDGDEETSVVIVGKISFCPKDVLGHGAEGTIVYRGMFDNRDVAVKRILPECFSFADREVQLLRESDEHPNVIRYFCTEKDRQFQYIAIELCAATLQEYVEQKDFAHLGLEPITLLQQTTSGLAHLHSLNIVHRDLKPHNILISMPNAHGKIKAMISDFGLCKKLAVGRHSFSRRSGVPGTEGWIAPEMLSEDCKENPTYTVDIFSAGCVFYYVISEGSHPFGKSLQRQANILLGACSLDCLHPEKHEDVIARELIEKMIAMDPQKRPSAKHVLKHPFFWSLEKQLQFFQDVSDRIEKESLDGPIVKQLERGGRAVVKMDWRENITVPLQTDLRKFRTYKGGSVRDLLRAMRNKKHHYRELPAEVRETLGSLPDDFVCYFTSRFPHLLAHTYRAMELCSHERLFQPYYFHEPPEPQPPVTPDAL

On to `CCOC(=O)CCc1c(C)n(C(=O)c2ccccc2)c2ccc(Br)cc12` [Compound 105], for which the HT-29 viability was 113.182 and 110.499 and 118.448 in series [1] (0.205761 μM); 123.469 and 111.597 and 102.062 in series [1] (0.617284 μM); 133.369 and 110.621 and 100.802 in series [1] (1.85185 μM); 113.223 and 102.896 and 116.984 in series [1] (5.55556 μM); 110.519 and 102.367 and 115.540 in series [1] (16.6667 μM); 128.693 and 87.059 and 105.213 in series [1] (50 μM). Besides, the “HCT 116 viability” value in series [2] (0.205761 μM) was 105.479 and 107.511 and 97.213; in series [2] (0.617284 μM) it was 103.773 and 98.693 and 112.553; in series [2] (1.85185 μM) it was 103.848 and 104.852 and 99.659; in series [2] (5.55556 μM), 103.874 and 100.174 and 105.429; in series [2] (16.6667 μM), 102.870 and 107.248 and 108.126; in series [2] (50 μM) it was 80.557 and 78.801 and 90.315. The A549 viability was 96.121 and 99.380 and 106.104 in series [3] (0.205761 μM); 98.783 and 101.411 and 97.532 in series [3] (0.617284 μM); 93.780 and 103.281 and 111.131 in series [3] (1.85185 μM); 105.404 and 106.621 and 106.322 in series [3] (5.55556 μM); 96.476 and 98.393 and 111.165 in series [3] (16.6667 μM); 100.539 and 103.017 and 106.219 in series [3] (50 μM). The MDMB-468 viability in series [4] (0.205761 μM) is 105.638 and 111.110 and 96.794; in series [4] (0.617284 μM) it was 104.047 and 105.002 and 96.794; in series [4] (1.85185 μM) it was 99.021 and 100.357 and 92.786; in series [4] (5.55556 μM), 101.502 and 93.231 and 90.241; in series [4] (16.6667 μM), 91.131 and 95.903 and 102.075; in series [4] (50 μM), 78.343 and 88.459 and 92.404.

Usually IC50 stands for the concentration that gives 50% inhibition. As to `COc1ccc2c(c1)c(CCC(=O)O)c(C)n2C(=O)c1ccc(S(=O)(=O)F)cc1` [IA06], the inhibition at 50 µM in series [5] (50 μM, read-out: kinase inhibition at highest tested concentration) was 23%; in series [5] (setting [8]), 17%. Besides, the IC50 in series [6] (p-IRE1a IC50, individual replicates (n1-n4), FRET assay, source data, unit from Fig. 3) is 11.1 µM and 6.78 µM and 5.45 µM; in series [6] (p-IRE1α IC50, FRET assay, RNase activity, mean (± SEM)), 7.79 µM; in series [7] (IRE1a IC50, individual replicates (n1-n4), FRET assay, source data, unit from Fig. 3 / sheet Fig. 2b), 9.65 µM and 7.76 µM and 4.55 µM; in series [7] (IRE1α IC50, FRET assay, RNase activity, mean (± SEM)), 7.32 µM.

As to `COc1ccc2c(c1)c(CCC(=O)O)c(C)n2C(=O)c1cc2ccccc2s1` [IA10], the inhibition at 5.56 µM in series [5] (Conc. 5560 nM, duplicates, read-out: IRE1a Kinase Displacement(%)) is 35%. Also, in series [5] (Conc. 16700 nM, duplicates, read-out: IRE1a Kinase Displacement(%)), the inhibition at 16.7 µM was 63%. Further, the inhibition at 50 µM in series [5] (setting [8]) turned out to be 58%. Further, the concentration for half-maximal inhibition (IC50) in series [5] (IRE1α kinase domain, read-out: IC50 (kinase binding), LanthaScreen Eu kinase binding) is 9.61 µM; in series [6] (FRET assay, read-out: p-IRE1α IC50 (RNase activity)), 1.97 µM; in series [6] (FRET assay, source data, unit from Fig. 3, read-out: p-IRE1a IC50, individual replicates (n1-n4)), 3.01 µM and 1.92 µM and 0.985 µM; in series [7] (FRET assay, dephosphorylated IRE1α, read-out: IRE1α IC50 (RNase activity)), 1.81 µM; in series [7] (FRET assay, source data, unit from Fig. 3 / sheet Fig. 2b, read-out: IRE1a IC50, individual replicates (n1-n4)), 0.727 µM and 2.78 µM and 2.47 µM and 1.25 µM.

On to `Cc1c(CCC(=O)O)c2cc(Br)ccc2n1C(=O)c1ccccc1` [Compound 107], for which the HT-29 viability is 107.531 and 106.250 in series [1] (0.205761 μM); 105.681 and 105.762 in series [1] (0.617284 μM); 112.450 and 111.942 in series [1] (1.85185 μM); 121.172 and 105.478 in series [1] (5.55556 μM); 115.825 and 113.345 in series [1] (16.6667 μM); 110.661 and 115.500 in series [1] (50 μM). The “HCT 116 viability” value in series [2] (0.205761 μM) was 102.833 and 101.904 and 103.547; in series [2] (0.617284 μM), 105.053 and 111.700 and 97.075; in series [2] (1.85185 μM) it was 98.142 and 107.837 and 106.069; in series [2] (5.55556 μM), 107.561 and 110.157 and 105.065; in series [2] (16.6667 μM), 99.383 and 99.772 and 101.528; in series [2] (50 μM), 89.136 and 87.455 and 94.529. Also, the A549 viability was 99.758 and 114.080 and 100.963 in series [3] (0.205761 μM); 103.947 and 108.835 and 105.037 in series [3] (0.617284 μM); 103.339 and 113.208 and 107.080 in series [3] (1.85185 μM); 100.390 and 102.432 and 108.606 in series [3] (5.55556 μM); 111.429 and 90.004 and 98.703 in series [3] (16.6667 μM); 105.990 and 95.489 and 98.817 in series [3] (50 μM). Further, the MDMB-468 viability in series [4] (0.205761 μM) was 101.311 and 95.140 and 93.231; in series [4] (0.617284 μM), 100.675 and 92.658 and 100.039; in series [4] (1.85185 μM), 97.239 and 104.174 and 86.869; in series [4] (5.55556 μM), 97.876 and 87.887 and 96.349; in series [4] (16.6667 μM), 85.214 and 82.224 and 83.624; in series [4] (50 μM), 81.333 and 82.288 and 84.260.
